Test [1] concerns the target T1, α1A Human Adrenergic Receptor (Homo sapiens, UniProt P25100).
T1 construct: The entire coding region of α1A (1719 bp); expressed in transfected cells
T1 sequence (P25100 1-572): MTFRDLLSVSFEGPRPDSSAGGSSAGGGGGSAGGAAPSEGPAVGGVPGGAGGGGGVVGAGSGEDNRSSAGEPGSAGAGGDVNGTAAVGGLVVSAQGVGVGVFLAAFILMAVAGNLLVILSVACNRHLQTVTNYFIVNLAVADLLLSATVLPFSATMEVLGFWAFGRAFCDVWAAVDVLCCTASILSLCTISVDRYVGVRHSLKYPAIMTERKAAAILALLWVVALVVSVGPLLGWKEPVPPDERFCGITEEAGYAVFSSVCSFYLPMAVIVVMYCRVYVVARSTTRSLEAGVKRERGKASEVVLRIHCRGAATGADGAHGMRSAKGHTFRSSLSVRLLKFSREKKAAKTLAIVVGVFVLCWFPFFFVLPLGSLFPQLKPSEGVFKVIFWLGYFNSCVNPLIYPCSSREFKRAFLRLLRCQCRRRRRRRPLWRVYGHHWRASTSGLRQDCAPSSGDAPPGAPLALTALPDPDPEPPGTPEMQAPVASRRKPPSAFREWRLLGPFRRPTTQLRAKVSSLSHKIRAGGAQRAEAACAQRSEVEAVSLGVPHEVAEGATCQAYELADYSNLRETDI
Kind of test: Radioligand binding, [3H]prazosin, cloned human α1A adrenergic receptor. The following applies: pKi alpha-1 1a. The method in brief: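 Competition binding used membrane preparations of transfected LM(tk−) cells and the α1 antagonist [3H]prazosin at 0.5 nM, incubated 20 min at 37° C in Tris-HCl buffer, pH 7.5.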

The target in another test is T2, L-type calcium channel (Rattus norvegicus, UniProt P22002).
T2 construct: membrane fragments of rat cardiac muscle; from tissue; host or cells: rat cardiac muscle membranes
Kind of test: Competition binding of [3H]nitrendipine to membrane fragments of rat cardiac muscle.

Another test concerns the target T3, α2C receptor (Homo sapiens, UniProt P18825).
T3 construct: host or cells: LM(tk-) cells, line L-α2C
T3 sequence (P18825 1-462): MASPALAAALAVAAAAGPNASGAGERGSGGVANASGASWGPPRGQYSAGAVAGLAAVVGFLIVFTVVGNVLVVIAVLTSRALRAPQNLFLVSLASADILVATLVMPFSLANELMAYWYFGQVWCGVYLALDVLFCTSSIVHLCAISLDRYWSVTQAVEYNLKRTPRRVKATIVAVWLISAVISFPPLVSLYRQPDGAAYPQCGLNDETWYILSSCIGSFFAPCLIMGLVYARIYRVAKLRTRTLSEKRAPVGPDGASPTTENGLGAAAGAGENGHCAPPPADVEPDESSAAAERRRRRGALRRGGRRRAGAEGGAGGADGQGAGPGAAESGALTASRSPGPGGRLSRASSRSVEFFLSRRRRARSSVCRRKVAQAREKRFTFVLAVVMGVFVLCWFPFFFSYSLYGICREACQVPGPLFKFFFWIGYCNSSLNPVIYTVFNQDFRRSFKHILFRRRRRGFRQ
Kind of test: Competition binding, [3H]rauwolscine, human α2C receptor. The method in brief: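 LM(tk−) lysates, stable α2A/α2B/α2C transfectants; 25 mM glycylglycine pH 7.6 (RT). [3H]rauwolscine 0.5 nM, equilibrium competition; NSB 10 μM phentolamine. GF/B filtration, cell harvester.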

The mark [2] stands for this setting: [3H]prazosin, cloned human α1A receptor, LM(tk−) cell membranes.
[3] abbreviates: [3H]nitrendipine, rat cardiac muscle membrane fragments, L-type calcium channel, read-out: pKi Ca (converted).
Where [4] appears, read: [3H]prazosin, cloned human receptor in LM(tk-) cell membranes, SEM and n in lines below.
[5] abbreviates: [3H]nitrendipine, rat cardiac muscle membranes, SEM and n in lines below, read-out: pKi Ca (converted).
The mark [6] stands for this setting: [3H]rauwolscine, LM(tk-) cell line L-α2C, SEM and n in lines below, read-out: pKi alpha-2 2c (converted).

Structures can show the parent of a compound that is named as a salt. Where two headings read alike, the source gives them in different places.

T2 sequence (P22002 whole entry, other chains not shown, the tested form may be a part): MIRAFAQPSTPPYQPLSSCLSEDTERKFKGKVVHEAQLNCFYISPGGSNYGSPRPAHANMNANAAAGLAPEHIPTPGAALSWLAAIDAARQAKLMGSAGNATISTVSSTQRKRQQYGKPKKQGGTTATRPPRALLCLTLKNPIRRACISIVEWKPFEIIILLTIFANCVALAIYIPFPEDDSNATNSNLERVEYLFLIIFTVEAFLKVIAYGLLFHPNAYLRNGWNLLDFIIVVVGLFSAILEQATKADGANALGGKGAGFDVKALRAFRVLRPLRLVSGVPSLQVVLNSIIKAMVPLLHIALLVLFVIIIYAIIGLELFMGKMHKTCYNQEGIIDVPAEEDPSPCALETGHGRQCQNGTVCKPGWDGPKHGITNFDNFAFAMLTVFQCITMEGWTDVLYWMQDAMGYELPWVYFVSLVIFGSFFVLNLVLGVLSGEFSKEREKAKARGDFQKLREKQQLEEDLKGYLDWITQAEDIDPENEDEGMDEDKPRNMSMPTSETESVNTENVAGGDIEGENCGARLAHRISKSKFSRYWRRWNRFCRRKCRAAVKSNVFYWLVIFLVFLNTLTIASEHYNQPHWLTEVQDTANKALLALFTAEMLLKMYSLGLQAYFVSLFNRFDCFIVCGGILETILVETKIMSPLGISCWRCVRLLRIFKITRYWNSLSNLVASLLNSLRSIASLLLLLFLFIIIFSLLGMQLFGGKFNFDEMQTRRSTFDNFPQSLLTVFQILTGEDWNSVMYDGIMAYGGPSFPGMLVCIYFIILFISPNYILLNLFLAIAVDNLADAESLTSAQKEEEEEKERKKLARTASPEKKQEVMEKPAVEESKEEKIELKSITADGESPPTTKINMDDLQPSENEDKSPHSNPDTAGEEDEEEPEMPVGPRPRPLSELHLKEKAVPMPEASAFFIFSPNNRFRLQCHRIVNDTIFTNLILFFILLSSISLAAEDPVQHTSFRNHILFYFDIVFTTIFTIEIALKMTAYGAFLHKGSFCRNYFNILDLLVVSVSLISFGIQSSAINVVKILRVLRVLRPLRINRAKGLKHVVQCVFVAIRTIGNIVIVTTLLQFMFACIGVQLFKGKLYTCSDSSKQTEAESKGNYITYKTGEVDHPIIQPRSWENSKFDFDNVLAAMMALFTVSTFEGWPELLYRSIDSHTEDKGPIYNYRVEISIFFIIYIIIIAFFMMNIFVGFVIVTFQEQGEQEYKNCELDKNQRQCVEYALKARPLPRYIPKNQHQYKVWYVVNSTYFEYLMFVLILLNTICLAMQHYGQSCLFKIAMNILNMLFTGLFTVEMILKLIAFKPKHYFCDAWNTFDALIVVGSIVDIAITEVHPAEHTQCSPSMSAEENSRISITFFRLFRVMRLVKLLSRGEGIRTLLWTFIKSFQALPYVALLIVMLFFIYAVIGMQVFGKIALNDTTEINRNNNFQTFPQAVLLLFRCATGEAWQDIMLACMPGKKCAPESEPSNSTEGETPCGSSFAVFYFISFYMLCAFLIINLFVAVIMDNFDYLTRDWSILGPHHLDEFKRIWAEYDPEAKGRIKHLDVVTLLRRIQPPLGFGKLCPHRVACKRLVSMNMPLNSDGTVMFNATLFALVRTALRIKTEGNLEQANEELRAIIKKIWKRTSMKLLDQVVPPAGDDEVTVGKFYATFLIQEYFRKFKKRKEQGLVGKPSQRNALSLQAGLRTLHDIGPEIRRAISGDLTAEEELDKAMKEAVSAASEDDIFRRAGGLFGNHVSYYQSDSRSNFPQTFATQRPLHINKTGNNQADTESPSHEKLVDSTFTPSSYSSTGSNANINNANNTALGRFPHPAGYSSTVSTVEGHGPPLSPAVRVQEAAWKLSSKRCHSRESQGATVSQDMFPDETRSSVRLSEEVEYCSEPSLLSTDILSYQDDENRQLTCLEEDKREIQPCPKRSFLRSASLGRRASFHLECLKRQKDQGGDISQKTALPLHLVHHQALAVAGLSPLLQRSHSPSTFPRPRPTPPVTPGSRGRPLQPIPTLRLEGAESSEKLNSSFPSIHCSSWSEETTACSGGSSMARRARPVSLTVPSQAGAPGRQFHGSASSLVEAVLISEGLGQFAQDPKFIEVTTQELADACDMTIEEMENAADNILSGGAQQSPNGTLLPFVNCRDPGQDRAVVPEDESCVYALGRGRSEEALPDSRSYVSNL
T2 sequence (P54290 25-944 partner limits assumed, other chains not shown): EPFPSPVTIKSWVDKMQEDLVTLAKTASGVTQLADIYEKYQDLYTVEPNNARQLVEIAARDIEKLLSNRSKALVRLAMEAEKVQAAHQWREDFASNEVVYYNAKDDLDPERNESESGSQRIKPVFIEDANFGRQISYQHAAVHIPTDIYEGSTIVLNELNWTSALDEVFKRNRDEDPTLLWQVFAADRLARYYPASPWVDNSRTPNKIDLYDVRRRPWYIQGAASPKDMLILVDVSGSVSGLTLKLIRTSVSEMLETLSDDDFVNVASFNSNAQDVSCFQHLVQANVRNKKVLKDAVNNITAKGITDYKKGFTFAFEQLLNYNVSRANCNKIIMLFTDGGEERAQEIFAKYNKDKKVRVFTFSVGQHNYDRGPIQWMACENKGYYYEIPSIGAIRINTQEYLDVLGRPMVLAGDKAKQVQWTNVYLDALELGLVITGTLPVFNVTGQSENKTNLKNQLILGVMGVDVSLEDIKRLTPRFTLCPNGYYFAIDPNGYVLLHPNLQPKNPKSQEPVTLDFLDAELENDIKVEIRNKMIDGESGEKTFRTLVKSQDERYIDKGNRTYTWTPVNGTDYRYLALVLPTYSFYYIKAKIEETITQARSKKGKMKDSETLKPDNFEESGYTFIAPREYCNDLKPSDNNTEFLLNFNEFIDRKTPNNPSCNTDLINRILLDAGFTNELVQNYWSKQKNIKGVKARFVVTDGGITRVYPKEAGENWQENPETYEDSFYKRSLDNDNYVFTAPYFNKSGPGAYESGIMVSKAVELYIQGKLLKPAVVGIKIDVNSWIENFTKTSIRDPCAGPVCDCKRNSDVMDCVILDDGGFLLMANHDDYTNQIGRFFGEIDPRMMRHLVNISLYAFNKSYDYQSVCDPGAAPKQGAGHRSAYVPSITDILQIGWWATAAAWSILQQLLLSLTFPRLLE
T2 sequence (P54290 945-1091 partner limits assumed, other chains not shown): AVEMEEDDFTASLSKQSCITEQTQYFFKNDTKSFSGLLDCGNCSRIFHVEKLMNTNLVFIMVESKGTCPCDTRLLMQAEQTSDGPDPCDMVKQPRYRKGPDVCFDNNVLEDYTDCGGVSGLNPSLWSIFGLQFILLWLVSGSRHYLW

For `COC(=O)C1=C(C)NC(C)=C(C(=O)NCCCN2CCC(c3ccccc3)(c3ccccc3)CC2)C1c1ccc(Cl)cc1` (stereo not drawn) [Example 10, 4-(4-Chlorophenyl)-1,4-dihydro-5-methoxycarbonyl-2,6-Dimethyl-5-(N-(3-(4,4-diphenylpiperidin-1-yl)propyl)carboxamido)pyridine], the figures for the Ki (in test [1]; on L-type calcium channel (pKi Ca); on α2C receptor (pKi alpha-2 2c)) were 0.447 µM, 7.59 µM and 1.23 µM, respectively.

Turning to `COC(=O)C1=C(C)NC(C)=C(C(=O)NCCCN2CCC(c3ccccc3)(c3ccccc3)CC2)C1c1ccc(I)cc1` (stereo not drawn) [Example 13, 1,4-Dihydro-4-(4-iodophenyl)-3-methoxycarbonyl-2,6-dimethyl-5-(N-(3-(4,4-diphenylpiperidin-1-yl)propyl)carboxamido)pyridine], the Ki in test [1] was 0.389 µM; at L-type calcium channel (pKi Ca) it was 8.91 µM; on α2C receptor (pKi alpha-2 2c), 0.646 µM.

Regarding `CNC(=O)C1=C(C)NC(C)=C(C(=O)NCCCN2CCC(O)(c3ccccc3)CC2)C1c1ccc([N+](=O)[O-])cc1` (stereo not drawn) [Example 162, 1,4-Dihydro-3-{N-[3-(4-hydroxy-4-phenylpiperidin-1-yl)propyl]}carboxamido-2,6-dimethyl-5-(N-methyl)carboxamido-4-(4-nitrophenyl)pyridine], the Ki in test [1] (setting [2]) is 1.07 µM; at L-type calcium channel (setting [3]), 50.1 µM; on α2C receptor ([3H]rauwolscine, human α2C receptor, LM(tk−) cells, read-out: pKi alpha-2 2c (converted)), 0.55 µM.

With `CCOC(=O)C1=C(CC(=O)NCCCN2CCC(c3ccccc3)(c3ccccc3)CC2)NC(C)=C(C(=O)OC)C1c1ccc([N+](=O)[O-])cc1` (stereo not drawn) [Example 89, 3-Ethoxycarbonyl-1,4-dihydro-5-methoxycarbonyl-6-methyl-4-(4-nitro)phenyl-2-(N-(3-(4,4,-diphenylpiperidin-1-yl)propyl)carboxamido)methylpyridine, fumarate salt], the Ki in test [1] is 0.347 µM; on L-type calcium channel (pKi Ca) it was 0.813 µM; at α2C receptor (pKi alpha-2 2c), 0.501 µM.

As for `CCC1=C(C(=O)NCCCN2CCC(c3ccccc3)(c3ccccc3)CC2)C(c2ccc([N+](=O)[O-])cc2)C(C(=O)OC)=C(C)N1` (stereo not drawn) [Example 73, 2-Ethyl-1,4-dihydro-5-methoxycarbonyl-6-methyl-4-(4-nitro) phenyl-3-(N-(3-(4,4-diphenylpiperidin-1-yl)propyl))carboxamidopyridine], the Ki is 0.204 µM in test [1], 0.759 µM on L-type calcium channel (pKi Ca) and 0.275 µM at α2C receptor (pKi alpha-2 2c).

As to `CCC1=C(C(=O)NCCCN2CCC(c3ccccc3)(c3ccccc3)CC2)C(c2ccc([N+](=O)[O-])cc2)C(C(N)=O)=C(C)N1` (stereo not drawn) [Example 81, 5-carboxamido-2-ethyl-1,4-dihydro-6-methyl-4-(4-nitro)phenyl-3-(N-(3-(4,4-diphenylpiperidin-1-yl)propyl))carboxamidopyridine hydrochloride], the Ki in test [1] (setting [4]) was 0.407 µM; at L-type calcium channel (setting [5]), 32.4 µM; at α2C receptor (setting [6]), 0.123 µM.

Consider `COC(=O)C1=C(C)NC(c2ccoc2)=C(C(=O)NCCCN2CCC(c3ccccc3)(c3ccccc3)CC2)C1c1ccc([N+](=O)[O-])cc1` (stereo not drawn) [Example 43, 2-(Furan-3-yl)-, 4-dihydro-5-methoxycarbonyl-6-methyl-4-(4-nitrophenyl)-3-(N-(3-(4,4-diphenylpiperidin-1-yl)propyl)carboxamidopyridine, hydrochloride salt], for which the values for the Ki (in test [1] (setting [4]); at L-type calcium channel (setting [5]); at α2C receptor (setting [6])) were 0.316 µM, 18.6 µM and 0.398 µM, respectively.

Take `COC(=O)C1=C(C)N(C)C(C)=C(C(=O)OCCCN2CCC(c3ccccc3)(c3ccccc3)CC2)C1c1ccc([N+](=O)[O-])cc1` (stereo not drawn) [Example 92, 1,4-Dihydro-5-methoxycarbonyl-1,2,6-trimethyl-4-(4-nitrophenyl)-3-[3-(4,4-diphenylpiperidin-1-yl)propoxy]carbonylpyridine hydrochloride hydrate]: the results for the Ki (in test [1]; on L-type calcium channel (pKi Ca); on α2C receptor (pKi alpha-2 2c)) were 0.209 µM, 4.17 µM and 0.759 µM, respectively.

As to `COC(=O)C1=C(C)NC(C)=C(C(=O)NCCCN2CCC(c3ccccc3)(c3ccccc3)CC2)C1c1ccc(C#N)cc1` (stereo not drawn) [Example 12, 4-(4-Cyanophenyl)-1,4-dihydro-3-methoxycarbonyl-2,6-dimethyl-5-(N-(3-(4,4-diphenylpiperidin-1-yl)propyl)carboxamido)pyridine], the Ki in test [1] is 0.38 µM; at L-type calcium channel (pKi Ca) it was 3.8 µM; at α2C receptor (pKi alpha-2 2c) it was 0.871 µM.

As for `CCC1=C(C(=O)NCCCN2CCC(c3ccccc3)(c3ccccc3)CC2)C(c2ccc(N)cc2)C(C(=O)OC)=C(C)N1` (stereo not drawn) [Example 114, 4-(4-Aminophenyl)-2-ethyl-1,4-dihydro-5-methoxycarbonyl-6-methyl-3-(N-(3-(4,4-diphenylpiperidin-1-yl)propyl)carboxamido)-pyridine], the Ki in test [1] was 0.55 µM; on L-type calcium channel (pKi Ca), 2.88 µM; at α2C receptor (pKi alpha-2 2c) it was 0.724 µM.

In the case of `COC(=O)C1=C(C)NC(C)=C(C(=O)NCCCN2CCC(c3ccccc3)(c3ccccc3)CC2)C1c1ccc(Cl)c(Cl)c1` (stereo not drawn) [Example 24, 4-(3,4-Dichlorophenyl)-1,4-dihydro-3-methoxycarbonyl-2,6-dimethyl-5-(3-(D 44-diphenylpiperidin-1-yl)propylcarboxamido)pyridine], the Ki is 0.324 µM in test [1], 1.95 µM at L-type calcium channel (pKi Ca) and 0.158 µM at α2C receptor (pKi alpha-2 2c).

For the molecule `CC(C)C1=C(C(N)=O)C(c2ccc([N+](=O)[O-])cc2)C(C(=O)NCCCN2CCC(c3ccccc3)(c3ccccc3)CC2)=C(C(C)C)N1` (stereo not drawn) [Example 127], the Ki is 0.355 µM in test [1] (setting [2]) and 1000 µM at L-type calcium channel (setting [3]). Besides, the “pKi alpha-2 2c” value at α2C receptor ([3H]rauwolscine, human α2C receptor, LM(tk−) cells) was 6.37.

In the case of `CC1=C(C(=O)NCCCN2CCC(c3ccccc3)(c3ccccc3)CC2)C(c2ccc([N+](=O)[O-])cc2)C2=C(CCCC2=O)N1` (stereo not drawn) [Example 40, 1,4,5,6,7,8-Hexahydro-2-methyl-4-(4-nitrophenyl)-5-oxo-3-{N-[3-(4,4-diphenylpiperidin-1-yl)propyl]}carboxamidoquinoline], the Ki in test [1] (setting [4]) was 0.55 µM; on L-type calcium channel (setting [5]), 15.8 µM; on α2C receptor (setting [6]), 0.977 µM.

Source of the values: patent US6608086B2, “Dihydropyridines and new uses thereof” (Synaptic Pharmaceutical Corporation, priority 1993, dated 2003).
